Structures can show the parent of a compound that is named as a salt.
Biological target: T1, chloride intracellular channel 1 (CLIC1) (Homo sapiens, UniProt O00299)
T1 construct: endogenous channel in GBM2 and GBM4 glioblastoma stem cells
Test: perforated-patch whole-cell patch clamp, CLIC1 (IAA94-sensitive) current
Format: cell-based

Row | Structure (SMILES) | perforated-patch whole-cell patch clamp, CLIC1 (IAA94-sensitive) current [mM]
1 | CN(C)C(=N)NC(=N)N [metformin, 1,1-dimethylbiguanide hydrochloride] | 10
2 | CC1(C)N=C(N)N=C(N)N1c1ccc(Cl)cc1 [cycloguanil] | 0.5

Reference: article PMC6110922, “Inhibition of Chloride Intracellular Channel 1 (CLIC1) as Biguanide Class-Effect to Impair Human Glioblastoma Stem Cell Viability” (Frontiers in Pharmacology, 2018)
